The term IC50 denotes the midpoint of a concentration-inhibition curve.

The structures appear in SMILES notation.

recombinant human Nav1.7, sequence (Q15858 whole entry): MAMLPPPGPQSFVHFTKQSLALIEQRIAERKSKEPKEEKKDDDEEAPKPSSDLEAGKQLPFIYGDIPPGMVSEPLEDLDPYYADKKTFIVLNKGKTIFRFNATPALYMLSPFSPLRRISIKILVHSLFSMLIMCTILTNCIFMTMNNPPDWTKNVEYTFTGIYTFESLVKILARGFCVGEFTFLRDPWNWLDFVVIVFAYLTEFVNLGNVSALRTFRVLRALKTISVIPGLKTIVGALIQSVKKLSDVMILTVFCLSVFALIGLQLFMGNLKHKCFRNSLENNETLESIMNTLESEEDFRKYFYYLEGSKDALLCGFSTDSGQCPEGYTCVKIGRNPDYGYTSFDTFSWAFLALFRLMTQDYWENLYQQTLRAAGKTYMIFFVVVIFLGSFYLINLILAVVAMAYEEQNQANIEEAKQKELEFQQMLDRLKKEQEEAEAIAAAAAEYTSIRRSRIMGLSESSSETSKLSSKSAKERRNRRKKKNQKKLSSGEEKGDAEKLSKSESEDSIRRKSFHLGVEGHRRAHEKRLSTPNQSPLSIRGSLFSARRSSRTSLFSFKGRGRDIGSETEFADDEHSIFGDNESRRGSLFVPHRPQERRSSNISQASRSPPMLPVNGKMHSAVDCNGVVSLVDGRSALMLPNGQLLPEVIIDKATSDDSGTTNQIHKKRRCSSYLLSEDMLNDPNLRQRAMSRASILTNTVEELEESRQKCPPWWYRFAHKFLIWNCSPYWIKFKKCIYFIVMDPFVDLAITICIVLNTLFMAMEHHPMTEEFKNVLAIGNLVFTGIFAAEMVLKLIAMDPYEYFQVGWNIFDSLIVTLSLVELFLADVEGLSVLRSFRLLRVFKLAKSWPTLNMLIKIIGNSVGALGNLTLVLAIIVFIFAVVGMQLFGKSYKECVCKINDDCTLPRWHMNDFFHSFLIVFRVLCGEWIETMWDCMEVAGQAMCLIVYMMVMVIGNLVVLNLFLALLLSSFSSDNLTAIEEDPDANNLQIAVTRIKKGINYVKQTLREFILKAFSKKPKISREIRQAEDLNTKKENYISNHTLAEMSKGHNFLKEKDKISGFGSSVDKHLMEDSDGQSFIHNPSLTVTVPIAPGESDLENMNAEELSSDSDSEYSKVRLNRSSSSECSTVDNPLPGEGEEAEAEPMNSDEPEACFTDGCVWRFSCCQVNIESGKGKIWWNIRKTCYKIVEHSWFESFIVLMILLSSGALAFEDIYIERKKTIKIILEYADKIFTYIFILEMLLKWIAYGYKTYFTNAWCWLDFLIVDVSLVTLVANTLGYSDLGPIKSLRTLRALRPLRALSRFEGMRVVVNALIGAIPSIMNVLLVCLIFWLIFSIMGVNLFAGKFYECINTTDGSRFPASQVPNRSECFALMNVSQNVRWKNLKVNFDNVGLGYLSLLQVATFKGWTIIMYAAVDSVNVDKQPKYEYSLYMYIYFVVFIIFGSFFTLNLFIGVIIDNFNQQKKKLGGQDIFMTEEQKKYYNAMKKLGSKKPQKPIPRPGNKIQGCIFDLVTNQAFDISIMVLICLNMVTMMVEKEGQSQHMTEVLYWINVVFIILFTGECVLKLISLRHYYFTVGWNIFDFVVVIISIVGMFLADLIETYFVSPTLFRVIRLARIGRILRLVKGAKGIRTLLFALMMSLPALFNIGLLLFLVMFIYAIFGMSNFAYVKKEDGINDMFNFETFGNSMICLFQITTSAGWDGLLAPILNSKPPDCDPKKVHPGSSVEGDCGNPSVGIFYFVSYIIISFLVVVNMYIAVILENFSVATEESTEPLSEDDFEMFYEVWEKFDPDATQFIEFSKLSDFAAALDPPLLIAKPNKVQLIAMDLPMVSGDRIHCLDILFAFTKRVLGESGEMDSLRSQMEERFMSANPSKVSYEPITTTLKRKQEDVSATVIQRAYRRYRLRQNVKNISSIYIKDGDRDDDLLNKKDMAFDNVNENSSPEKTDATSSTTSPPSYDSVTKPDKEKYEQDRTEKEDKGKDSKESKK

In one test the target is recombinant human Nav1.7 (Homo sapiens (Human), UniProt Q15858). As to the kind of experiment: FRET-based membrane potential assay, recombinant human sodium channel Nav1.7. Type of test: cell-based. The following applies: HEK293 cells stably expressing recombinant human Nav1.7; veratridine + scorpion venom depolarization; read-out: FRET-Membrane Potential Nav1.7 IC50. The method in brief:
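Channel activation used veratridine at its EC80, set by a dilution curve each experiment, together with Leiurus scorpion venom, added 3 min after compound. Membrane-potential ratio signals from FLIPR Tetra in HEPES-buffered HBSS were fitted to a four-parameter Hill equation for percent inhibition and IC50.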
As for `O=C(c1ccc2cc(Oc3ccc(C(F)(F)F)cn3)ccc2n1)N1C[C@H]2CNC[C@H]2C1` [Example 164, (3 aR,6aS)-hexahydropyrrolo[3,4-c]pyrrol-2(1H)-yl(6-{[5-(trifluoromethyl)pyridin-2-yl]oxy}quinolin-2-yl)methanone], the IC50 was 12.7 µM.
On the same count and under the same terms, with `O=C(NC1CCS(=O)(=O)C1)c1ccc2cc(Oc3ccc(Cl)nn3)ccc2n1` (stereo not shown) [Example 165, 6-[(6-chloropyridazin-3-yl)oxy]-N-(1,1-dioxidotetrahydrothiophen-3-yl)quinoline-2-carboxamide] the figure was more than 20 µM.
On the same count and under the same terms, under `O=C1NC[C@@H]2CN(C(=O)c3ccc4cc(Oc5ccc(C(F)(F)F)cn5)ccc4n3)C[C@H]12` [Example 166, (3 aR,6aR)-5-[(6-{[5-(trifluoromethyl)pyridin-2-yl]oxy}quinolin-2-yl)carbonyl]hexahydropyrrolo[3,4-c]pyrrol-1(2H)-one] stands 11.1 µM; under `O=C(NC1CCS(=O)(=O)C1)c1ccc2cc(Oc3ccc(C(F)(F)F)nn3)ccc2n1` (stereo not shown) [Example 168, N-(1,1-dioxidotetrahydrothiophen-3-yl)-6-{[6-(trifluoromethyl)pyridazin-3-yl]oxy}quinoline-2-carboxamide], more than 20 µM.
As to `O=C1NCCN2CCN(C(=O)c3ccc4cc(Oc5ccc(C(F)(F)F)cn5)ccc4n3)CC12` (stereo not shown) [Example 169, 8-[(6-{[5-(trifluoromethyl)pyridin-2-yl]oxy}quinolin-2-yl)carbonyl]hexahydro-2H-pyrazino[1,2-a]pyrazin-1(6H)-one], the IC50 stood at 17.2 µM.
Take `O=C(c1ccc2cc(Oc3ccc(C(F)(F)F)cn3)ccc2n1)N1CCn2cnnc2C1` [Example 170, 5,6-dihydro[1,2,4]triazolo[4,3-a]pyrazin-7(8H)-yl(6-{[5-(trifluoromethyl)pyridin-2-yl]oxy}quinolin-2-yl)methanone]: the IC50 stood at 8.87 µM.
On the same count and under the same terms, under `O=C1NCC(=O)N2CCN(C(=O)c3ccc4cc(Oc5ccc(C(F)(F)F)cn5)ccc4n3)CC12` (stereo not shown) [Example 171, 8-[(6-{[5-(trifluoromethyl)pyridin-2-yl]oxy}quinolin-2-yl)carbonyl]tetrahydro-2H-pyrazino[1,2-a]pyrazine-1,4(3H,6H)-dione] stands 7.95 µM.
On the same count and under the same terms, with `O=C1CN(C(=O)c2ccc3cc(Oc4ccc(C(F)(F)F)cn4)ccc3n2)CCN1` [Example 172, 4-[(6-{[5-(trifluoromethyl)pyridin-2-yl]oxy}quinolin-2-yl)carbonyl]piperazin-2-one] the figure was 10.5 µM; with `O=C(c1ccc2cc(Oc3ccc(C(F)(F)F)cn3)ccc2n1)N1CCn2cncc2C1` [Example 173, 5,6-dihydroimidazo[1,5-a]pyrazin-7(8H)-yl(6-{[5-(trifluoromethyl)pyridin-2-yl]oxy}quinolin-2-yl)methanone], 0.833 µM; with `O=C(NCCN1CCCC1)c1ccc2cc(Oc3ccc(C(F)(F)F)cn3)ccc2n1` [Example 174, N-[2-(pyrrolidin-1-yl)ethyl]-6-{[5-(trifluoromethyl)pyridin-2-yl]oxy}quinoline-2-carboxamide], 0.294 µM.
With `O=C(NCCN1CCCCC1)c1ccc2cc(Oc3ccc(C(F)(F)F)cn3)ccc2n1` [Example 175, N-[2-(piperidin-1-yl)ethyl]-6-{[5-(trifluoromethyl)pyridin-2-yl]oxy}quinoline-2-carboxamide], the IC50 is 0.206 µM.
Same read-out and setting: under `CC(C)S(=O)(=O)N1CCN(C(=O)c2ccc3cc(Oc4ccc(C(F)(F)F)cn4)ccc3n2)CC1` [Example 177, [4-(isopropylsulfonyl)piperazin-1-yl](6-{[5-(trifluoromethyl)pyridin-2-yl]oxy}quinolin-2-yl)methanone] stands 2.68 µM.

The same test, now with this note: read-out: FRET-Membrane Potential Nav1.7 IC50.
Regarding `CS(=O)(=O)N1CCN(C(=O)c2ccc3cc(Oc4ccc(C(F)(F)F)cn4)ccc3n2)CC1` [Example 176, [4-(methylsulfonyl)piperazin-1-yl](6-{[5-(trifluoromethyl)pyridin-2-yl]oxy}quinolin-2-yl)methanone], the IC50 was 8.77 µM.

(Values after patent US9452986B2, “6-heteroaryloxy- or 6-aryloxy-quinoline-2-carboxamides and method of use” (AbbVie Inc., priority 2014, dated 2016).)
